Results reported in US9499550B2 (BRISTOL-MYERS SQUIBB COMPANY, priority 2012, dated 2016).

Tests used:
[1] = system: HCV genotype 1a (H77 strain) replicon in HUH-7 cells; assay: HCV replicon luciferase reporter assay, genotype 1a; assay type: cell-based; details: Hepatitis C virus, Huh-7, 72 h, HCV genotype 1a replicon luciferase, 3 days incubation, read-out: LE_1a (EC50, range)
Outline: (§1)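 Replicon inhibition for both genotypes was measured as Renilla luciferase signal (EnduRen, 7.5 μM final, 2 h) after 3-day, 37° C exposure of replicon-bearing HUH-7 cells in 4% FCS DMEM, 0.5% DMSO. The 1b construct carries S1179I; the 1a H77 construct carries P1496L and S2204I. Twenty-point, 3-fold dilutions were fitted four-parametrically for EC50, and CC50 was taken from multiplexed Cell Titer-Blue.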

[2] = system: HCV genotype 1b (Con1) replicon in HUH-7 cells; assay: HCV replicon luciferase reporter assay, genotype 1b; assay type: cell-based; details: Hepatitis C virus, Huh-7, 72 h, HCV genotype 1b replicon luciferase, 3 days incubation, read-out: LE_1b (EC50, range)
Outline: as §1

With [2H]C([2H])([2H])C(OC(=O)N[C@@H]1C(=O)N2C[C@H](Oc3nccc4cc(OC(C)C)ccc34)C[C@H]2C(=O)N[C@]2(C(=O)NS(=O)(=O)C3(C)CC3)C[C@H]2/C=C\CC[C@H](C)C[C@H]1C)(C([2H])([2H])[2H])C([2H])([2H])[2H] [Compound 5166, 1,1,1,3,3,3-hexadeutero-2-(trideuteromethyl)propan-2-yl((2R,6S,7R,9S,13aS,14aR,16aS,Z)-2-((6-isopropoxyisoquinolin-1-yl)oxy)-7,9-dimethyl-14a-(((1-methylcyclopropyl)sulfonyl)carbamoyl)-5,16-dioxo-1,2,3,5,6,7,8,9,10,11,13a,14,14a,15,16,16a-hexadecahydrocyclopropa[e]pyrrolo[1,2-a][1,4]diazacyclopentadecin-6-yl)carbamate] the EC50 [1] was 4.82 to 103 nM and the EC50 [2] was 4.82 to 103 nM.

[2H]C([2H])([2H])C(OC(=O)N[C@@H]1C(=O)N2C[C@H](Oc3nccc4cc(OC(C)C)ccc34)C[C@H]2C(=O)N[C@]2(C(=O)NS(=O)(=O)C3(C)CC3)C[C@H]2/C=C\CC[C@@H](C)C[C@H]1C)(C([2H])([2H])[2H])C([2H])([2H])[2H] [Compound 5167, 1,1,1,3,3,3-hexadeutero-2-(trideuteromethyl)propan-2-yl((2R,6S,7R,9R,13aS,14aR,16aS,Z)-2-((6-isopropoxyisoquinolin-1-yl)oxy)-7,9-dimethyl-14a-(((1-methylcyclopropyl)sulfonyl)carbamoyl)-5,16-dioxo-1,2,3,5,6,7,8,9,10,11,13a,14,14a,15,16,16a-hexadecahydrocyclopropa[e]pyrrolo[1,2-a][1,4]diazacyclopentadecin-6-yl)carbamate] gave an EC50 [1] of less than 5.46 nM and an EC50 [2] of less than 5.46 nM.

For CCCOc1ccc2c(O[C@@H]3C[C@H]4C(=O)N[C@]5(C(=O)NS(=O)(=O)C6CC6)C[C@H]5/C=C\CC[C@H](C)C[C@@H](C)[C@H](NC(=O)OC(C)(C)C)C(=O)N4C3)nccc2c1 [Compound 5168, tert-butyl ((2R,6S,7R,9S,13aS,14aR,16aS,Z)-14a-((cyclopropylsulfonyl)carbamoyl)-7,9-dimethyl-5,16-dioxo-2-((6-propoxyisoquinolin-1-yl)oxy)-1,2,3,5,6,7,8,9,10,11,13a,14,14a,15,16,16a-hexadecahydrocyclopropa[e]pyrrolo[1,2-a][1,4]diazacyclopentadecin-6-yl)carbamate], the EC50 [1] was less than 5.46 nM and the EC50 [2] was less than 5.46 nM.

CCCOc1ccc2c(O[C@@H]3C[C@H]4C(=O)N[C@]5(C(=O)NS(=O)(=O)C6CC6)C[C@H]5/C=C\CC[C@@H](C)C[C@@H](C)[C@H](NC(=O)OC(C)(C)C)C(=O)N4C3)nccc2c1 [Compound 5169, tert-butyl ((2R,6S,7R,9R,13aS,14aR,16aS,Z)-14a-((cyclopropylsulfonyl)carbamoyl)-7,9-dimethyl-5,16-dioxo-2-((6-propoxyisoquinolin-1-yl)oxy)-1,2,3,5,6,7,8,9,10,11,13a,14,14a,15,16,16a-hexadecahydrocyclopropa[e]pyrrolo[1,2-a][1,4]diazacyclopentadecin-6-yl)carbamate] was tested, and the EC50 [1] was less than 5.46 nM and the EC50 [2] was less than 5.46 nM.

CCCOc1ccc2c(O[C@@H]3C[C@H]4C(=O)N[C@]5(C(=O)NS(=O)(=O)C6CC6)C[C@H]5/C=C\CC[C@H](C)C[C@@H](C)[C@H](NC(=O)OC(C)(C)C(F)(F)F)C(=O)N4C3)nccc2c1 [Compound 5170, 1,1,1-trifluoro-2-methylpropan-2-yl((2R,6S,7R,9S,13aS,14aR,16aS,Z)-14a-((cyclopropylsulfonyl)carbamoyl)-7,9-dimethyl-5,16-dioxo-2-((6-propoxyisoquinolin-1-yl)oxy)-1,2,3,5,6,7,8,9,10,11,13a,14,14a,15,16,16a-hexadecahydrocyclopropa[e]pyrrolo[1,2-a][1,4]diazacyclopentadecin-6-yl)carbamate] was tested, and the EC50 [1] was 4.82 to 103 nM and the EC50 [2] was less than 5.46 nM.

CCCOc1ccc2c(O[C@@H]3C[C@H]4C(=O)N[C@]5(C(=O)NS(=O)(=O)C6CC6)C[C@H]5/C=C\CC[C@@H](C)C[C@@H](C)[C@H](NC(=O)OC(C)(C)C(F)(F)F)C(=O)N4C3)nccc2c1 [Compound 5171, 1,1,1-trifluoro-2-methylpropan-2-yl((2R,6S,7R,9R,13aS,14aR,16aS,Z)-14a-((cyclopropylsulfonyl)carbamoyl)-7,9-dimethyl-5,16-dioxo-2-((6-propoxyisoquinolin-1-yl)oxy)-1,2,3,5,6,7,8,9,10,11,13a,14,14a,15,16,16a-hexadecahydrocyclopropa[e]pyrrolo[1,2-a][1,4]diazacyclopentadecin-6-yl)carbamate] gave an EC50 [1] of less than 5.46 nM and an EC50 [2] of less than 5.46 nM.

Work on [2H]C([2H])([2H])C(OC(=O)N[C@@H]1C(=O)N2C[C@H](Oc3nccc4cc(OCCC)ccc34)C[C@H]2C(=O)N[C@]2(C(=O)NS(=O)(=O)C3CC3)C[C@H]2/C=C\CC[C@H](C)C[C@H]1C)(C([2H])([2H])[2H])C(F)(F)F [Compound 5172] yielded an EC50 [1] of 4.82 to 103 nM and an EC50 [2] of less than 5.46 nM.

For [2H]C([2H])([2H])C(OC(=O)N[C@@H]1C(=O)N2C[C@H](Oc3nccc4cc(OCCC)ccc34)C[C@H]2C(=O)N[C@]2(C(=O)NS(=O)(=O)C3CC3)C[C@H]2/C=C\CC[C@@H](C)C[C@H]1C)(C([2H])([2H])[2H])C(F)(F)F [Compound 5173], the EC50 [1] was less than 5.46 nM and the EC50 [2] was less than 5.46 nM.

For [2H]C([2H])([2H])C(OC(=O)N[C@@H]1C(=O)N2C[C@H](Oc3nccc4cc(OC)ccc34)CC2C(=O)N[C@]2(C(=O)NS(=O)(=O)C3(C)CC3)C[C@H]2/C=C\CC[C@H](C)C[C@H]1C)(C([2H])([2H])[2H])C(F)(F)F (stereo partly drawn) [Compound 5174, 1,1,1,3,3,3-hexadeutero-2-(trifluoromethyl)propan-2-yl((2R,6S,7R,9S,13aS,14aR,16aS,Z)-2-((6-methoxyisoquinolin-1-yl)oxy)-7,9-dimethyl-14a-(((1-methylcyclopropyl)sulfonyl)carbamoyl)-5,16-dioxo-1,2,3,5,6,7,8,9,10,11,13a,14,14a,15,16,16a-hexadecahydrocyclopropa[e]pyrrolo[1,2-a][1,4]diazacyclopentadecin-6-yl)carbamate], the EC50 [1] was less than 5.46 nM and the EC50 [2] was less than 5.46 nM.

For [2H]C([2H])([2H])C(OC(=O)N[C@@H]1C(=O)N2C[C@H](Oc3nccc4cc(OC)ccc34)CC2C(=O)N[C@]2(C(=O)NS(=O)(=O)C3(C)CC3)C[C@H]2/C=C\CC[C@@H](C)C[C@H]1C)(C([2H])([2H])[2H])C(F)(F)F (stereo partly drawn) [Compound 5175, 1,1,1,3,3,3-hexadeutero-2-(trifluoromethyl)propan-2-yl((2R,6S,7R,9R,13aS,14aR,16aS,Z)-2-((6-methoxyisoquinolin-1-yl)oxy)-7,9-dimethyl-14a-(((1-methylcyclopropyl)sulfonyl)carbamoyl)-5,16-dioxo-1,2,3,5,6,7,8,9,10,11,13a,14,14a,15,16,16a-hexadecahydrocyclopropa[e]pyrrolo[1,2-a][1,4]diazacyclopentadecin-6-yl)carbamate], the EC50 [1] was less than 5.46 nM and the EC50 [2] was less than 5.46 nM.

[2H]C([2H])([2H])C(C)(OC(=O)N[C@@H]1C(=O)N2C[C@H](Oc3nccc4cc(OC)ccc34)CC2C(=O)N[C@]2(C(=O)NS(=O)(=O)C3(C)CC3)C[C@H]2/C=C\CC[C@H](C)C[C@H]1C)C([2H])([2H])[2H] (stereo partly drawn) [Compound 5176, 1,1,1,3,3,3-hexadeutero-2-methylpropan-2-yl((2R,6S,7R,9S,13aS,14aR,16aS,Z)-2-((6-methoxyisoquinolin-1-yl)oxy)-7,9-dimethyl-14a-(((1-methylcyclopropyl)sulfonyl)carbamoyl)-5,16-dioxo-1,2,3,5,6,7,8,9,10,11,13a,14,14a,15,16,16a-hexadecahydrocyclopropa[e]pyrrolo[1,2-a][1,4]diazacyclopentadecin-6-yl)carbamate] showed an EC50 [1] of 4.82 to 103 nM and an EC50 [2] of less than 5.46 nM.

Compound [2H]C([2H])([2H])C(C)(OC(=O)N[C@@H]1C(=O)N2C[C@H](Oc3nccc4cc(OC)ccc34)CC2C(=O)N[C@]2(C(=O)NS(=O)(=O)C3(C)CC3)C[C@H]2/C=C\CC[C@@H](C)C[C@H]1C)C([2H])([2H])[2H] (stereo partly drawn) [Compound 5177, 1,1,1,3,3,3-hexadeutero-2-methylpropan-2-yl((2R,6S,7R,9R,13aS,14aR,16aS,Z)-2-((6-methoxyisoquinolin-1-yl)oxy)-7,9-dimethyl-14a-(((1-methylcyclopropyl)sulfonyl)carbamoyl)-5,16-dioxo-1,2,3,5,6,7,8,9,10,11,13a,14,14a,15,16,16a-hexadecahydrocyclopropa[e]pyrrolo[1,2-a][1,4]diazacyclopentadecin-6-yl)carbamate] has an EC50 [1] of less than 5.46 nM and an EC50 [2] of less than 5.46 nM.

COc1ccc2c(O[C@@H]3C[C@H]4C(=O)N[C@]5(C(=O)NS(=O)(=O)C6(C)CC6)C[C@H]5/C=C\CC[C@H](C)C[C@@H](C)[C@H](NC(=O)NC(C)(C)C)C(=O)N4C3)nccc2c1 [Compound 5178, (2R,6S,7R,9S,13aS,14aR,16aS,Z)-6-(3-(tert-butyl)ureido)-2-((6-methoxyisoquinolin-1-yl)oxy)-7,9-dimethyl-N-((1-methylcyclopropyl)sulfonyl)-5,16-dioxo-1,2,3,5,6,7,8,9,10,11,13a,14,14a,15,16,16a-hexadecahydrocyclopropa[e]pyrrolo[1,2-a][1,4]diazacyclopentadecine-14a-carboxamide] showed an EC50 [1] of 4.82 to 103 nM and an EC50 [2] of less than 5.46 nM.

Work on COc1ccc2c(O[C@@H]3C[C@H]4C(=O)N[C@]5(C(=O)NS(=O)(=O)C6(C)CC6)C[C@H]5/C=C\CC[C@@H](C)C[C@@H](C)[C@H](NC(=O)NC(C)(C)C)C(=O)N4C3)nccc2c1 [Compound 5179, (2R,6S,7R,9R,13aS,14aR,16aS,Z)-6-(3-(tert-butyl)ureido)-2-((6-methoxyisoquinolin-1-yl)oxy)-7,9-dimethyl-N-((1-methylcyclopropyl)sulfonyl)-5,16-dioxo-1,2,3,5,6,7,8,9,10,11,13a,14,14a,15,16,16a-hexadecahydrocyclopropa[e]pyrrolo[1,2-a][1,4]diazacyclopentadecine-14a-carboxamide] yielded an EC50 [1] of less than 5.46 nM and an EC50 [2] of less than 5.46 nM.
